From ChEMBL document CHEMBL2203078, “Identification of amides as carboxylic Acid surrogates for quinolizidinone-based m1 positive allosteric modulators” (ACS Med Chem Lett, 2012)
The source made the active and inactive calls. No cut-off for these calls is given here.

Assays:
[1] = target: T1, Muscarinic acetylcholine receptor M2 (Homo sapiens) (UniProt P08172); assay: Activity at muscarinic M2 receptor expressing in CHONFAT cells assessed as potentiation of acetylcholine-induced calcium mobilization preincubated for 4 mins and measured 4 mins after acetylcholine stimulation by FLIPR assay; type: functional, cell-based
T1 sequence (whole entry): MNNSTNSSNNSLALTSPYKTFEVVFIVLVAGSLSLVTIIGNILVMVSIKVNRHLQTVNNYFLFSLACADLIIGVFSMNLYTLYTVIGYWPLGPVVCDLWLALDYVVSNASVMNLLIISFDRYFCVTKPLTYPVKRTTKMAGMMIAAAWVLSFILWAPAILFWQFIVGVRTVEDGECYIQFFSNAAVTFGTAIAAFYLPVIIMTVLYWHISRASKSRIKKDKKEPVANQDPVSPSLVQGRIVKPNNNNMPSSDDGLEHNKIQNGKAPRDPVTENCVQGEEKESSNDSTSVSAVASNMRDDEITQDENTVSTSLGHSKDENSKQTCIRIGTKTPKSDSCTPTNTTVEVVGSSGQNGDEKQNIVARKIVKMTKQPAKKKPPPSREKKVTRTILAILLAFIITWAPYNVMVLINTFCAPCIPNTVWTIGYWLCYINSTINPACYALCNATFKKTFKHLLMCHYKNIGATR

[2] = Protein binding in human plasma; type: ADME, cell-free; settings: read-out: PPB (converted)
[3] = target: T2, Muscarinic acetylcholine receptor M1 (Homo sapiens) (UniProt P11229); assay: Positive allosteric modulation of human muscarinic M1 receptor expressing in CHONFAT cells assessed as potentiation of acetylcholine-induced calcium mobilization preincubated for 4 mins and measured 4 mins after acetylcholine stimulation by FLIPR assay; type: functional, cell-based
T2 sequence (whole entry): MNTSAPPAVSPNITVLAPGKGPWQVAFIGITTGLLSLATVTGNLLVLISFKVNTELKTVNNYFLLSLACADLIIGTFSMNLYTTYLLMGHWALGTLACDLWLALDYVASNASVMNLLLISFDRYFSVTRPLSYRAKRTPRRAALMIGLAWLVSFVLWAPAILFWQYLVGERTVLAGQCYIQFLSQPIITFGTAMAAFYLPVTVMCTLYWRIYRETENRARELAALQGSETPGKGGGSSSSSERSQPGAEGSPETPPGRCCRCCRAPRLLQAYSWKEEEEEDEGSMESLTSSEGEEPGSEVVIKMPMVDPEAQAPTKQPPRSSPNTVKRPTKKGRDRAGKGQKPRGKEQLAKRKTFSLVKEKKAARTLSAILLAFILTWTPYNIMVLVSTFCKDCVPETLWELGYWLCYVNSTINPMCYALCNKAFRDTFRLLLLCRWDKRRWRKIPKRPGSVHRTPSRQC

[4] = target: T3, Muscarinic acetylcholine receptor M4 (Homo sapiens) (UniProt P08173); assay: Activity at muscarinic M4 receptor expressing in CHONFAT cells assessed as potentiation of acetylcholine-induced calcium mobilization preincubated for 4 mins and measured 4 mins after acetylcholine stimulation by FLIPR assay; type: functional, cell-based
T3 sequence (whole entry): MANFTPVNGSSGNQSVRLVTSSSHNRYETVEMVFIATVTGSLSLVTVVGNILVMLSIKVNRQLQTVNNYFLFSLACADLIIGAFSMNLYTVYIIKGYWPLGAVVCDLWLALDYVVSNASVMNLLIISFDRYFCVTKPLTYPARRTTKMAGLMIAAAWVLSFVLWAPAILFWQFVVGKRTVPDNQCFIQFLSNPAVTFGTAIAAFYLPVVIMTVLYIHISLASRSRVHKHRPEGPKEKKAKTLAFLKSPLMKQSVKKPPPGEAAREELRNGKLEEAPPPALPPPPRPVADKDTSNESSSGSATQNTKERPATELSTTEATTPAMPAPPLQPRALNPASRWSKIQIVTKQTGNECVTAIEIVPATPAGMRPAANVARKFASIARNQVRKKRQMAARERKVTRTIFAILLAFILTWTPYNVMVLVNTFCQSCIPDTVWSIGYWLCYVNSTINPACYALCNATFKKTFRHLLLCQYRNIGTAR

[5] = Protein binding in rat plasma; type: ADME, cell-free; settings: read-out: PPB (converted)
[6] = Passive permeability across MDCK cells; type: ADME, cell-based, Canis lupus familiaris; settings: dog
[7] = target: Muscarinic acetylcholine receptor M3 (Homo sapiens) (UniProt P20309); assay: Activity at muscarinic M3 receptor expressing in CHONFAT cells assessed as potentiation of acetylcholine-induced calcium mobilization preincubated for 4 mins and measured 4 mins after acetylcholine stimulation by FLIPR assay; type: functional, cell-based
MDR1a (P-gp, ABCB1) = MDR1a (P-gp, ABCB1) (Rattus norvegicus, UniProt P43245); assay: in vitro; settings: not told
Description: Efflux ratio assessed as rat MDR1a-mediated directional transport ratio from basolateral to apical over apical to basolateral by cell based assay

MDR1 (P-gp, ABCB1) = MDR1 (P-gp, ABCB1) (Homo sapiens, UniProt P08183); assay: in vitro; settings: not told
Description: Efflux ratio assessed as human MDR1-mediated directional transport ratio from basolateral to apical over apical to basolateral by cell based assay

[8] = Drug concentration in Sprague-Dawley rat CSF at 10 mg/kg, po after 2 hrs; type: ADME, organism-based, Cerebrospinal fluid; design: dose 10 mg/kg, route oral; settings: read-out: Drug uptake
[9] = Plasma concentration in Sprague-Dawley rat at 10 mg/kg, po after 2 hrs; type: ADME, organism-based; design: dose 10 mg/kg, route oral
[10] = Ratio of drug level in brain to plasma of Sprague-Dawley rat at 10 mg/kg, po after 2 hrs; type: ADME, organism-based; design: dose 10 mg/kg, route oral; settings: read-out: BPR
[11] = Drug concentration in Sprague-Dawley rat brain at 10 mg/kg, po after 2 hrs; type: ADME, organism-based; design: dose 10 mg/kg, route oral; settings: read-out: Drug uptake

Sequence of MDR1a (P-gp, ABCB1) (P43245 whole entry): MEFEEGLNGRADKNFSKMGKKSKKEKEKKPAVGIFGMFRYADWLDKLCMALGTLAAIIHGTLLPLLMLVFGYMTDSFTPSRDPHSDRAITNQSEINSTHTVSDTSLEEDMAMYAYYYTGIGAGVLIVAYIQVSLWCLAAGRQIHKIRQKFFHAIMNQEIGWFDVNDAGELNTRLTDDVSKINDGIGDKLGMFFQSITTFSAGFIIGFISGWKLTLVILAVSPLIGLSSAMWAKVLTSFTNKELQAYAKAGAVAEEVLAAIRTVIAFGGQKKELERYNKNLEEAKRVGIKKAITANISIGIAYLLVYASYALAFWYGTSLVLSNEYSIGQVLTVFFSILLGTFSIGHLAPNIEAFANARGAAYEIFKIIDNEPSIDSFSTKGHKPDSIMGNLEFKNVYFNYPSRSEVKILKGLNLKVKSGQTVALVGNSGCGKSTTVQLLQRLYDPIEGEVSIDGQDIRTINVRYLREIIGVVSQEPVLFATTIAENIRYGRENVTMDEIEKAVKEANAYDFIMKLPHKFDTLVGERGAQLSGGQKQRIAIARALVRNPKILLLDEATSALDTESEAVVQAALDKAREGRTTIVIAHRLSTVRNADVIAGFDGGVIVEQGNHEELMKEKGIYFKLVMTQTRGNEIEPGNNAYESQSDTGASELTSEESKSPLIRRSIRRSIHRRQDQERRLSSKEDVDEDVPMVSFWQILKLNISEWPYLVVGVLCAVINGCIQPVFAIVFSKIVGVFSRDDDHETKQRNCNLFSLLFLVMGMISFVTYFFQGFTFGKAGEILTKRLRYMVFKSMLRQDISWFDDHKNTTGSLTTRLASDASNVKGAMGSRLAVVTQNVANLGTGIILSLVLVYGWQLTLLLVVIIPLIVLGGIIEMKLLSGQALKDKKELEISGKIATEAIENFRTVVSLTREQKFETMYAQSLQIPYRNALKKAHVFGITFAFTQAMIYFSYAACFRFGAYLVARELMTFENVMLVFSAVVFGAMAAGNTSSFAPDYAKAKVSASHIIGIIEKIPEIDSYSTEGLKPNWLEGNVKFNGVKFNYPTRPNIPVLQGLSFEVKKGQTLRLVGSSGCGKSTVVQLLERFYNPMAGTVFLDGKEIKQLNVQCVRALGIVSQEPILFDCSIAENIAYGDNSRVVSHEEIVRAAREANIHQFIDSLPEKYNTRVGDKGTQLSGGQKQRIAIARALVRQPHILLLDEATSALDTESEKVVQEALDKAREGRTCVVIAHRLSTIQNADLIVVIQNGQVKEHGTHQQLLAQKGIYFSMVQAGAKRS
Sequence of MDR1 (P-gp, ABCB1) (P08183 whole entry): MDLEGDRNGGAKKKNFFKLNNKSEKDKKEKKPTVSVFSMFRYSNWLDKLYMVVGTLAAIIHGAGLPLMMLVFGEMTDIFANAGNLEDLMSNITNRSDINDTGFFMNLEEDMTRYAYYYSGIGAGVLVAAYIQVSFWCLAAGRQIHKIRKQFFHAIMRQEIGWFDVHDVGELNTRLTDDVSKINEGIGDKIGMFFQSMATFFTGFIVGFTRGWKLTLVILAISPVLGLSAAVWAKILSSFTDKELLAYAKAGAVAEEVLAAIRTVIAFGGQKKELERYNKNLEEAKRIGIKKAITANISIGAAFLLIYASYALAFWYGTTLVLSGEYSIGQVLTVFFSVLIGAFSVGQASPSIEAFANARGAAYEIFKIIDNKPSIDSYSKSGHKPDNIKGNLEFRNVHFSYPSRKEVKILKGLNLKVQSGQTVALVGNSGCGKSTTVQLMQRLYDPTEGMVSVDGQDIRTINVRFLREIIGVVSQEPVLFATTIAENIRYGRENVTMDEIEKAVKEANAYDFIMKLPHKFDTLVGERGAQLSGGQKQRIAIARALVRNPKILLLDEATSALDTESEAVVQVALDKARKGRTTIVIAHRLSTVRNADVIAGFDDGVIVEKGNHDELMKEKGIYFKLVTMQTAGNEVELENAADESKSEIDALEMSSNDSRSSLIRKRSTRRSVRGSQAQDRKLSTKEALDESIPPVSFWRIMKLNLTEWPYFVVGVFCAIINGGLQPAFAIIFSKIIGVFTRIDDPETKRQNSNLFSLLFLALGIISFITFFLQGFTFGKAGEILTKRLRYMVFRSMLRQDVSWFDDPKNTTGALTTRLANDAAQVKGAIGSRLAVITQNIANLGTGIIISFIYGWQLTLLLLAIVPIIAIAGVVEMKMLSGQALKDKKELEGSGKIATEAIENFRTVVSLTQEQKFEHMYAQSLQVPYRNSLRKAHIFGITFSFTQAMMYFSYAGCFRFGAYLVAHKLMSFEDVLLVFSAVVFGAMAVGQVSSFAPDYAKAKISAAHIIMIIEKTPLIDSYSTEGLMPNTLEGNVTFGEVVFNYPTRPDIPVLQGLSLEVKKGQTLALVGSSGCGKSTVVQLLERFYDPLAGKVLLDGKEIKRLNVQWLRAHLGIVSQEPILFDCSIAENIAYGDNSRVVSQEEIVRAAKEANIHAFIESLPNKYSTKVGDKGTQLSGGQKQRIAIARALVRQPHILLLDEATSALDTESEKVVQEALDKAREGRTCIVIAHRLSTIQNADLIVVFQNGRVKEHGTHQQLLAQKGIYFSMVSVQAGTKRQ
Sequence of Muscarinic acetylcholine receptor M3 (Homo sapiens) (P20309 whole entry, looked up): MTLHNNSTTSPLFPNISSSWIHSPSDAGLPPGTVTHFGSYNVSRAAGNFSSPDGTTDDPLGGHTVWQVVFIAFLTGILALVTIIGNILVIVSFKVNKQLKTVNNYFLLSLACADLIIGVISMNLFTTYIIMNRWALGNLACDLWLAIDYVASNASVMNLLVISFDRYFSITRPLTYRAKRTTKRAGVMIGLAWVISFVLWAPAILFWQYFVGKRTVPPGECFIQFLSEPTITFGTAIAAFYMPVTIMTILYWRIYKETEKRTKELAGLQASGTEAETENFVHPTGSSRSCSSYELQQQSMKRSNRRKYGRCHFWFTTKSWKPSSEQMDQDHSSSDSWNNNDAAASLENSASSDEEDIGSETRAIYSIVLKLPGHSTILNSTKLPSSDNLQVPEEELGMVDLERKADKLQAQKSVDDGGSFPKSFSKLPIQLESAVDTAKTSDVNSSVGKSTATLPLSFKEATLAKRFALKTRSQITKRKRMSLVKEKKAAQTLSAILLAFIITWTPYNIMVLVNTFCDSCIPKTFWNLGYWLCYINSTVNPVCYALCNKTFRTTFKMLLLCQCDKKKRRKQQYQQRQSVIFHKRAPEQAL

Activity [1] | fraction unbound [2] | IP [3] | Activity [4] | fraction unbound [5] | Papp [6] | Activity [7] | efflux ratio (MDR1a (P-gp, ABCB1)) | efflux ratio (MDR1 (P-gp, ABCB1)) | concentration at 2 h [8] | concentration at 2 h [9] | Kp at 2 h [10] | concentration at 2 h [11] | SMILES
inactive | 0.48 | 31 nM | inactive | 0.14 | 29 ×10⁻⁶ cm/s | inactive |  |  |  |  |  |  | N#CC1(c2ccccn2)CCN(Cc2cc(C(=O)N[C@H]3CCCC[C@@H]3O)c(=O)n3ccccc23)CC1
inactive |  | 1300 nM | inactive |  |  | inactive |  |  |  |  |  |  | Cn1cc(NC(=O)c2cc(CN3CCC(C#N)(c4ccccn4)CC3)c3ccccn3c2=O)nn1
inactive |  | 23000 nM | inactive |  |  | inactive |  |  |  |  |  |  | COc1ccc(Cn2cc(C(=O)Nc3ccccc3C)c(=O)c3ccccc32)cc1
inactive |  | 2400 nM | inactive |  |  | inactive |  |  |  |  |  |  | Cc1ccccc1NC(=O)c1cc(CN2CCC(C#N)(c3ccccn3)CC2)c2ccccn2c1=O
inactive | 0.399 | 174 nM | inactive | 0.287 | 23 ×10⁻⁶ cm/s | inactive |  |  |  |  |  |  | Cc1ccc(N2CCN(Cc3cc(C(=O)N[C@H]4CCCC[C@@H]4O)c(=O)n4ccccc34)CC2)nc1
inactive |  | 640 nM | inactive |  |  | inactive |  |  |  |  |  |  | N#CC1(c2ccccn2)CCN(Cc2cc(C(=O)Nc3ccccn3)c(=O)n3ccccc23)CC1
inactive |  | 220 nM | inactive |  |  | inactive |  |  |  |  |  |  | N#CC1(c2ccccn2)CCN(Cc2cc(C(=O)N[C@@H]3CCCC[C@H]3O)c(=O)n3ccccc23)CC1
inactive |  | 190 nM | inactive |  |  | inactive |  |  |  |  |  |  | C[C@H]1CCCC[C@@H]1NC(=O)c1cc(CN2CCC(C#N)(c3ccccn3)CC2)c2ccccn2c1=O
inactive |  | 780 nM | inactive |  |  | inactive |  |  |  |  |  |  | N#CC1(c2ccccn2)CCN(Cc2cc(C(=O)NC3CCCC3)c(=O)n3ccccc23)CC1
inactive |  | > 20000 nM | inactive |  | 28 ×10⁻⁶ cm/s | inactive | 12 | 10 |  |  |  |  | C[C@@]1(NC(=O)c2cc(CN3CCC(C#N)(c4ccccn4)CC3)c3ccccn3c2=O)CCCC[C@H]1O
inactive |  | 980 nM | inactive |  |  | inactive |  |  |  |  |  |  | N#CC1(c2ccccn2)CCN(Cc2cc(C(=O)NC3CCC3)c(=O)n3ccccc23)CC1
inactive |  | 93 nM | inactive |  |  | inactive |  |  |  |  |  |  | C[C@@]1(O)CCCC[C@H]1NC(=O)c1cc(CN2CCC(C#N)(c3ccccn3)CC2)c2ccccn2c1=O
inactive | 0.082 | 22 nM | inactive | 0.051 | 37 ×10⁻⁶ cm/s | inactive |  |  | 4 nM | 375 nM | 0.19 | 77 nM | O=C(N[C@H]1CCCC[C@@H]1O)c1cc(CN2CCN(c3cc4scnc4cn3)CC2)c2ccccn2c1=O
inactive |  | 381 nM | inactive |  |  | inactive |  |  |  |  |  |  | CO[C@H]1CCCC[C@@H]1NC(=O)c1cc(CN2CCC(C#N)(c3ccccn3)CC2)c2ccccn2c1=O
inactive | 0.105 | 205 nM | inactive | 0.04 | 29 ×10⁻⁶ cm/s | inactive | 3.4 | 1.7 |  |  |  |  | N#CC1(c2ccccn2)CCN(Cc2cc(C(=O)NC3CCCCC3(F)F)c(=O)n3ccccc23)CC1 (stereo not drawn)
inactive |  | 7800 nM | inactive |  |  | inactive |  |  |  |  |  |  | N#CC1(c2ccccn2)CCN(Cc2cc(C(=O)N3CCCc4ccccc43)c(=O)n3ccccc23)CC1
inactive |  | 304 nM | inactive |  |  | inactive |  |  |  |  |  |  | N#CC1(c2ccccn2)CCN(Cc2cc(C(=O)NC3CCCCCC3)c(=O)n3ccccc23)CC1
inactive |  | 2600 nM | inactive |  |  | inactive |  |  |  |  |  |  | N#CC1(c2ccccn2)CCN(Cc2cc(C(=O)NC3CCCOC3)c(=O)n3ccccc23)CC1 (stereo not drawn)
inactive |  | 2200 nM | inactive |  |  | inactive |  |  |  |  |  |  | N#CC1(c2ccccn2)CCN(Cc2cc(C(=O)NC3CC3)c(=O)n3ccccc23)CC1
inactive | 0.066 | 253 nM | inactive | 0.044 | 28 ×10⁻⁶ cm/s | inactive | 2 | 1.6 |  |  |  |  | N#CC1(c2ccccn2)CCN(Cc2cc(C(=O)NC3CCCCC3)c(=O)n3ccccc23)CC1
inactive |  | 1900 nM | inactive |  |  | inactive |  |  |  |  |  |  | N#CC1(c2ccccn2)CCN(Cc2cc(C(N)=O)c(=O)n3ccccc23)CC1
inactive |  | 23000 nM | inactive |  |  | inactive |  |  |  |  |  |  | N#CC1(c2ccccn2)CCN(Cc2cc(C(=O)N3CCCC3)c(=O)n3ccccc23)CC1
inactive |  | 4400 nM | inactive |  |  | inactive |  |  |  |  |  |  | CN(C(=O)c1cc(CN2CCC(C#N)(c3ccccn3)CC2)c2ccccn2c1=O)C1CCOCC1
inactive |  | 177 nM | inactive |  |  | inactive |  |  |  |  |  |  | CS[C@H]1CCCC[C@@H]1NC(=O)c1cc(CN2CCC(C#N)(c3ccccn3)CC2)c2ccccn2c1=O
inactive |  | 4400 nM | inactive |  |  | inactive |  |  |  |  |  |  | Cc1cccc2c1N(C(=O)c1cc(CN3CCC(C#N)(c4ccccn4)CC3)c3ccccn3c1=O)CCC2
inactive |  | 344 nM | inactive |  |  | inactive |  |  |  |  |  |  | N#CC1(c2ccccn2)CCN(Cc2cc(C(=O)NC3CCSCC3)c(=O)n3ccccc23)CC1
inactive |  | 4300 nM | inactive |  |  | inactive |  |  |  |  |  |  | CNC(=O)c1cc(CN2CCC(C#N)(c3ccccn3)CC2)c2ccccn2c1=O

SMILES | Activity [1] | fraction unbound [2] | IP [3] | Activity [4] | fraction unbound [5] | Papp [6] | Activity [7] | efflux ratio (MDR1a (P-gp, ABCB1)) | efflux ratio (MDR1 (P-gp, ABCB1)) | concentration at 2 h [8] | concentration at 2 h [9] | Kp at 2 h [10] | concentration at 2 h [11]
COc1ccc(Cn2cc(C(=O)NC3CCCCC3)c(=O)c3ccccc32)cc1 | inactive |  | 14000 nM | inactive |  |  | inactive |  |  |  |  |  | 
